Assays:
[1] = target: T1, GL-7-ACA acylase of P. nitroreducens ATCC 33634 (Pseudomonas nitroreducens, UniProt E0D5C2); experiment: Effect of various inhibitors on the acylase activity; type: biochemical
T1 construct: periplasmic
T1 sequence (E0D5C2 24-556): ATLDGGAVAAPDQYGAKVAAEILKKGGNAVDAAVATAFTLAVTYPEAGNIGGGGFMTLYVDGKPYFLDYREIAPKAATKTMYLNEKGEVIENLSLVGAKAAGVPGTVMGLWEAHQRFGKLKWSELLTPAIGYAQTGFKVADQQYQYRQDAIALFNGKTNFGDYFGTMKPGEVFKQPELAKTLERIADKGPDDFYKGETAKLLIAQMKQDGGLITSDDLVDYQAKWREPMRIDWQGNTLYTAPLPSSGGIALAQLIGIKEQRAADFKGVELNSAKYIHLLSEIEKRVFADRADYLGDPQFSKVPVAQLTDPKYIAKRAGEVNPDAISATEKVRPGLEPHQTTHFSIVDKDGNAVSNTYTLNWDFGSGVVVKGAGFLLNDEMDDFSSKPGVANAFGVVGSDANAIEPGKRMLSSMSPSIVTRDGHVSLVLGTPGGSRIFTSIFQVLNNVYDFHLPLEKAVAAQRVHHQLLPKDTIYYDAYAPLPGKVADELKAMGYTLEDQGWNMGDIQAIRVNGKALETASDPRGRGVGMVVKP
T1 sequence (E0D5C2 25-556 partner): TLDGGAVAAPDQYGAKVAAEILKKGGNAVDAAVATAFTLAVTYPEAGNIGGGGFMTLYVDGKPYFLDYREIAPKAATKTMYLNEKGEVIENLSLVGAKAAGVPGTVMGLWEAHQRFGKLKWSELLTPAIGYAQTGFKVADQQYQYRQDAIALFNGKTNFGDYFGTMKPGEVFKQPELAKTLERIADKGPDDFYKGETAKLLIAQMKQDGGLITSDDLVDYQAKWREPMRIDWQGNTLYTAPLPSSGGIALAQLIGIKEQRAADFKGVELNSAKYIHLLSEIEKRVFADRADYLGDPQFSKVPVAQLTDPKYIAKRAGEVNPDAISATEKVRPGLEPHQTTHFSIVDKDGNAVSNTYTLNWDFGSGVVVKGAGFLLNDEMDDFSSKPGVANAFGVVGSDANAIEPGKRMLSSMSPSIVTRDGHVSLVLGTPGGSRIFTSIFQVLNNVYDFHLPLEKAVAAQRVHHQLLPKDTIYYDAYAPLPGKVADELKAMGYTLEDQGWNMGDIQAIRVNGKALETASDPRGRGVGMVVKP
Protocol: It has been reported that the activity of GL-7-ACA acylases can be inhibited by their own products, e.g., 7-ACA and glutaric acid. Thus, the inhibitory effects of various compounds on the present acylase were tested (Table 4). The compounds were 7-ACA, glutaric acid, glutamate, succinyl-7-ACA, and Ceph C, all of which were used at 20 mM.

[2] = target: T1, GL-7-ACA acylase of P. nitroreducens ATCC 33634; experiment: Substrate profile of GL-7-ACA acylase, whole cells of ATCC 33634; type: biochemical; conditions: for activity as substrate, in words: cells of ATCC 33634, compared with GL-7-ACA; for relative activity (percentage relative to the activity for GL7-ACA): whole cells of ATCC 33634, 0.2 g/l substrate, 37° C., 3 hr
Protocol: (§1) Colonies forming clear zones were cultivated in Nutrient Broth (Difco, Detroit, Mich.) and tested for GL-7-ACA acylase activity as described by Shibuya et al. (Agric. Biol. Chem. 45: 1561-1567, 1981). The whole-cell suspension of ATCC 33634 in 100 mM acetate buffer (pH 5.0) was used as the acylase source. One unit of the acylase activity was defined as the amount of enzyme that liberates 1 μmole of […] per min.
Cells of ATCC 33634 were used to convert GL-7-ACA and related compounds (Table 2). GL-7-ACA, GL-7-ADCA, and succinyl-7-ACA were prepared according to the method of Shibuya et al. (Agric. Biol. Chem. 45: 1561-1567, 1981).
^a The relative GL7-ACA acylase activity was presented as percentage
relative to the activity for GL7-ACA. Whole cells of ATCC 33634 were
incubated with 0.2 g/l of GL7-ACA, GL7-ADCA, succinyl 7ACA, or Ceph C at […]

[3] = tested on: P. nitroreducens ATCC 33634; experiment: Effect of composition of media on production of GL-7-ACA acylase; type: cell-based, Pseudomonas nitroreducens
Protocol: as §1
To obtain the optimal medium for P. nitroreducens ATCC 33634 cultivation, various media were tested according to the report of Nikolov and Danielsson (Enzyme Microbiol. Technol. 16: 1031-1036, 1994) (Table 1). The cultivation was carried out in 500 ml flasks containing 100 ml of media (Table 1) at 30° C. and 150 rpm for 24 hr. All media were adjusted to pH 7.5 before autoclaving. Yeast extract, casein, peptone, and meat extract were purchased from Difco Laboratories Inc. (Detroit, Mich.).

Compound	activity as substrate, in words [2]	relative activity (percentage relative to the activity for GL7-ACA) [2]	also measured
CC(=O)OCC1=C(C(=O)O)N2C(=O)[C@@H](N)[C@H]2SC1 [7-ACA, 7-Aminocephalosporanic acid]			inhibitory effect, in words ([1]; compounds used at 20 mM): strongest inhibitory effects
CC(=O)OCC1=C(C(=O)O)N2C(=O)[C@@H](NC(=O)CCC[C@@H](N)C(=O)O)[C@H]2SC1 [Ceph C, cephalosporin C]	No activity was detected	not detected	
CC(=O)OCC1=C(C(=O)O)N2C(=O)[C@@H](NC(=O)CCCC(=O)O)[C@H]2SC1 [GL-7-ACA, glutaryl-7-aminocephalo-sporanic acid]		100%	
CC1=C(C(=O)O)N2C(=O)[C@@H](NC(=O)CCCC(=O)O)[C@H]2SC1 [GL-7-ADCA, glutaryl-desacetoxy-7-aminocephalosporanic acid]	nearly three times more activity	294%	
N[C@@H](CCC(=O)O)C(=O)O [Glutamate, glutamate]			Relative activity (%) of acylase with inhibitor [1]: < 1%
O=C(O)CCCC(=O)O [Glutaric acid, glutaric acid]			inhibition of the enzyme activity ([3]; glutaric acid at 0.12%): up to 50%; induction of GL-7-ACA acylase activity ([3]; in ATCC 33634): did not induce; lowest concentration that inhibited the acylase activity ([3]; in ATCC 33634): 0.02%
CC(=O)OCC1=C(C(=O)O)N2C(=O)[C@@H](NC(=O)CCC(=O)O)[C@H]2SC1 [Succinyl-7ACA, succinyl-7-ACA]	No activity was detected	not detected	

From patent publication US5766871A, “Screening and characterization of glutaryl-7-aminocephalosporanic acid acylase” (priority 1996, dated 1998)
